Results as given in ChEMBL document CHEMBL4706520, “Development of disulfide-derived fructose-1,6-bisphosphatase (FBPase) covalent inhibitors for the treatment of type 2 diabetes” (Eur J Med Chem, 2020).
Activity calls are given as the source filed them. The rule behind the calls is not given here.

How the values were obtained:
[1] = biological target: T1, Fructose-1,6-bisphosphatase 1 (Homo sapiens) (UniProt P09467); experiment: Inhibition of wild-type full-length human liver FBPase expressed in Escherichia coli BL21 (DE3) using FBP as substrate at 10 uM by malachite green dye-based assay; assay type: single protein
T1 sequence (whole entry): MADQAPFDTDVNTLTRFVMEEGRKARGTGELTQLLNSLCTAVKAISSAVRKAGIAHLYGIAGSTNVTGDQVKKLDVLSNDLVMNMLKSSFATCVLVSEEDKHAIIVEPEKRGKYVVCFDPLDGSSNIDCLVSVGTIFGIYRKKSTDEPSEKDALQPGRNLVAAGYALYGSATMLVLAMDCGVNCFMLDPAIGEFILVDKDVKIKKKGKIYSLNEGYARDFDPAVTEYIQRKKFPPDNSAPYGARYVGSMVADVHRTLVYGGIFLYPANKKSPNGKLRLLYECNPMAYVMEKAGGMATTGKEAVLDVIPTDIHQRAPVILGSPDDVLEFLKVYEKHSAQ

Homo sapiens [2] = species: Homo sapiens; experiment: Selectivity index, ratio of IC50 for FBPase C38S mutant IC50 for FBPase WT (unknown origin)
Homo sapiens [3] = species: Homo sapiens; experiment: Selectivity index, ratio of IC50 for FBPase WT (unknown origin) to IC50 for FBPase […] mutant IC50 for FBPase WT (unknown origin)
Homo sapiens [4] = species: Homo sapiens; experiment: Selectivity index, ratio of IC50 for FBPase C179S mutant IC50 for FBPase WT (unknown origin)
Mus musculus [5] = experiment: Suppression of blood glucose concentration in 12 hrs fasted ICR mouse model at 12.5 mg/kg, ip measured upto 120 mins after oral administration of glucose at 2 g/kg for 60 min by oral glucose tolerance test; assay type: functional, organism-based
Mus musculus [6] = experiment: Hypoglycemic activity in 2 hrs fasted db/db mouse model assessed as reduction in blood glucose AUC at 25 mg/kg, ip measured upto 120 mins after oral administration of glucose at 2 g/kg for 60 min by oral glucose tolerance test; assay type: functional, organism-based
Homo sapiens [7] = species: Homo sapiens; experiment: Selectivity index, ratio of IC50 for FBPase C92S mutant IC50 for FBPase WT (unknown origin)
Homo sapiens [8] = species: Homo sapiens; experiment: Selectivity index, ratio of IC50 for FBPase C116S mutant IC50 for FBPase WT (unknown origin)
Homo sapiens [9] = species: Homo sapiens; experiment: Selectivity index, ratio of IC50 for FBPase D127A mutant IC50 for FBPase WT (unknown origin)
Homo sapiens [10] = species: Homo sapiens; experiment: Selectivity index, ratio of IC50 for FBPase C183S mutant IC50 for FBPase WT (unknown origin)
Homo sapiens [11] = species: Homo sapiens; experiment: Selectivity index, ratio of IC50 for FBPase R254A mutant IC50 for FBPase WT (unknown origin)
[12] = biological target: T1, Fructose-1,6-bisphosphatase 1 (Homo sapiens); experiment: Covalent binding affinity to FBPase WT (unknown origin) assessed as maximum peak absorption measured upto 45 mins by UV-visible spectroscopy (reference value: 283 nm); conditions: time min <=45
Homo sapiens [13] = species: Homo sapiens; experiment: Selectivity index, ratio of IC50 for FBPase N125A mutant IC50 for FBPase WT (unknown origin)
Mus musculus [14] = experiment: Suppression of blood glucose concentration in 12 hrs fasted db/db mouse model at 12.5 mg/kg, ip measured upto 120 mins after oral administration of glucose at 2 g/kg for 60 min by oral glucose tolerance test; assay type: functional, organism-based
Mus musculus [15] = experiment: Hypoglycemic activity in 2 hrs fasted db/db mouse model assessed as reduction in blood glucose AUC at 12.5 mg/kg, ip measured upto 120 mins after oral administration of glucose at 2 g/kg for 60 min by oral glucose tolerance test; assay type: functional, organism-based
Homo sapiens [16] = species: Homo sapiens; experiment: Selectivity index, ratio of IC50 for FBPase C128S mutant IC50 for FBPase WT (unknown origin)
Mus musculus [17] = experiment: Suppression of blood glucose concentration in 12 hrs fasted ICR mouse model at 25 mg/kg, ip measured upto 120 mins after oral administration of glucose at 2 g/kg for 60 min by oral glucose tolerance test; assay type: functional, organism-based
Homo sapiens [18] = species: Homo sapiens; experiment: Selectivity index, ratio of IC50 for FBPase R243A mutant IC50 for FBPase WT (unknown origin)
Homo sapiens [19] = species: Homo sapiens; experiment: Selectivity index, ratio of IC50 for FBPase Y258A mutant IC50 for FBPase WT (unknown origin)
Homo sapiens [20] = species: Homo sapiens; experiment: Selectivity index, ratio of IC50 for FBPase S124A mutant IC50 for FBPase WT (unknown origin)
Hepatocyte = experiment: Inhibition of gluconeogenesis in C57BLKS mouse primary hepatocytes assessed as inhibition of glucose output measured after 6 hrs; assay type: functional, cell-based; conditions: dose 0.5-100 µmol/L
c1csc(SSc2nccs2)n1 [21] = experiment: Covalent inhibition of FBPase C116S mutant (unknown origin) assessed as Vmax measured upto 45 mins by UV-visible spectrometry analysis; conditions: Homo sapiens
c1csc(SSc2nccs2)n1 [22] = experiment: Covalent inhibition of FBPase R243A mutant (unknown origin) assessed as Vmax measured upto 45 mins by UV-visible spectrometry analysis; conditions: Homo sapiens; time min <=45
c1csc(SSc2nccs2)n1 [23] = experiment: Covalent inhibition of FBPase C281S mutant (unknown origin) assessed as Vmax measured upto 45 mins by UV-visible spectrometry analysis; conditions: Homo sapiens; time min <=45
c1csc(SSc2nccs2)n1 [24] = experiment: Covalent inhibition of FBPase R254A mutant (unknown origin) assessed as Vmax measured upto 45 mins by UV-visible spectrometry analysis; conditions: Homo sapiens; time min <=45
c1csc(SSc2nccs2)n1 [25] = experiment: Covalent inhibition of FBPase C183S (unknown origin) upto 45 mins; conditions: Homo sapiens; time min <=45
c1csc(SSc2nccs2)n1 [26] = experiment: Covalent inhibition of FBPase D127A mutant (unknown origin) assessed as Vmax measured upto 45 mins by UV-visible spectrometry analysis; conditions: Homo sapiens; time min <=45
c1csc(SSc2nccs2)n1 [27] = experiment: Covalent inhibition of FBPase Y258A mutant (unknown origin) assessed as Vmax measured upto 45 mins by UV-visible spectrometry analysis; conditions: Homo sapiens; time min <=45
c1csc(SSc2nccs2)n1 [28] = experiment: Covalent inhibition of FBPase C92S mutant (unknown origin) assessed as Vmax measured upto 45 mins by UV-visible spectrometry analysis; conditions: Homo sapiens
c1csc(SSc2nccs2)n1 [29] = experiment: Covalent inhibition of FBPase C183S (unknown origin) assessed as Vmax measured upto 45 mins; conditions: Homo sapiens; time min <=45
c1csc(SSc2nccs2)n1 [30] = experiment: Covalent inhibition of FBPase C38S mutant (unknown origin) assessed as Vmax measured at 45 mins by UV-visible spectrometry analysis; conditions: Homo sapiens
c1csc(SSc2nccs2)n1 [31] = experiment: Covalent inhibition of FBPase C128S mutant (unknown origin) assessed as Vmax measured upto 45 mins by UV-visible spectrometry analysis; conditions: Homo sapiens; time min <=45
c1csc(SSc2nccs2)n1 [32] = experiment: Covalent inhibition of FBPase S124A mutant (unknown origin) assessed as Vmax measured upto 45 mins by UV-visible spectrometry analysis; conditions: Homo sapiens; time min <=45
c1csc(SSc2nccs2)n1 [33] = experiment: Covalent inhibition of FBPase N125A mutant (unknown origin) assessed as Vmax measured upto 45 mins by UV-visible spectrometry analysis; conditions: Homo sapiens; time min <=45
c1csc(SSc2nccs2)n1 [34] = experiment: Covalent inhibition of FBPase C179S mutant (unknown origin) assessed as Vmax measured upto 45 mins by UV-visible spectrometry analysis; conditions: Homo sapiens; time min <=45

## c1ccc(SSc2ccccc2)cc1
[1]
  inhibition: 10.4%

## CCN(CC)C(=S)SC(=S)N(CC)CC
[1]
  inhibition: 18%

## CC(C)N(C(=S)SSC(=S)N(C(C)C)C(C)C)C(C)C
[1]
  inhibition: 47.8%

## CCN(CC)C(=O)CSC(=S)N(CC)CC
[1]
  inhibition: 3.22%

## CN(C(=S)SSC(=S)N(C)c1ccccc1)c1ccccc1
[1]
  inhibition: 35.7%

## CN(Cc1ccccc1)C(=S)SSC(=S)N(C)Cc1ccccc1
[1]
  inhibition: 3.09%

## C1CCC(SSC2CCCCC2)CC1
[1]
  inhibition: 12.4%

## c1csc(SSC2CCCC2)n1
[1]
  inhibition: 34.3%

## Clc1ccc(SSc2ccc(Cl)cc2)cc1
[1]
  inhibition: 18%

## S=C(SSC(=S)N1CCc2ccccc21)N1CCc2ccccc21
[1]
  inhibition: 39.9%

## S=C(SSC(=S)N1CCC1)N1CCC1
[1]
  inhibition: 28.5%

## CCN(CC)C(=O)SSC(=O)N(CC)CC
[1]
  inhibition: 2.59%

## CCCN(CCC)C(=S)SSC(=S)N(CCC)CCC
[1]
  inhibition: 13.6%

## C[C@@H]1CN(C(=S)SSC(=S)N2C[C@@H](C)O[C@@H](C)C2)C[C@H](C)O1
[1]
  inhibition: 37.7%

## S=C(SSC(=S)N1CC2CCCCC2C1)N1CC2CCCCC2C1 (centres undefined)
[1]
  inhibition: 37.2%

## COc1ccc2nc(SSc3nc4ccc(OC)cc4s3)sc2c1
[1]
  inhibition: 44.7%

## S=C(SSC(=S)N1CCc2ccccc2C1)N1CCc2ccccc2C1
[1]
  inhibition: 38.4%

## S=C(SSC(=S)n1ncc2ccccc21)n1ncc2ccccc21
[1]
  inhibition: 47.6%

## CCN(CC)C(=S)CSC(=S)N(CC)CC
[1]
  inhibition: 21.4%

## Cc1cccn1C(=S)SSC(=S)n1cccc1C
[1]
  inhibition: 29.4%

## Cn1ccnc1SSc1nccn1C
[1]
  inhibition: 9.65%

## O=[N+]([O-])c1ccc2nc(SSc3nc4ccc([N+](=O)[O-])cc4s3)sc2c1
[1]
  inhibition: 18.4%

## S=C(SSC(=S)N1CCOCC1)N1CCOCC1
[1]
  inhibition: 26.1%

## S=C(SSC(=S)N1CCCc2ccccc21)N1CCCc2ccccc21
[1]
  inhibition: 9.87%

## CN(C(=S)SSC(=S)N(C)c1ccc(-c2ccccc2)cc1)c1ccc(-c2ccccc2)cc1
[1]
  inhibition: 32.4%

## c1csc(SSc2cccs2)c1
[1]
  inhibition: 50.6%

## c1csc(SSc2nccs2)n1
Homo sapiens [2]
  Ratio IC50: 1.1
Homo sapiens [3]
  Ratio IC50: 0.7
Homo sapiens [4]
  Ratio IC50: 0.6
Mus musculus [5]
  inhibition: Active
Mus musculus [6]
  inhibition: Active
Homo sapiens [7]
  Ratio IC50: 0.5
Homo sapiens [8]
  Ratio IC50: 0.7
Homo sapiens [9]
  Ratio IC50: 0.7
Homo sapiens [10]
  Ratio IC50: 0.8
Homo sapiens [11]
  Ratio IC50: 2.3
[12]
  lambda max: 306 nm
Homo sapiens [13]
  Ratio IC50: > 926
Mus musculus [14]
  inhibition: Active
Mus musculus [15]
  inhibition: Active
Homo sapiens [16]
  Ratio IC50: > 1850
Mus musculus [17]
  inhibition: Active
Homo sapiens [18]
  Ratio IC50: > 1
Homo sapiens [19]
  Ratio IC50: 11.5
Homo sapiens [20]
  Ratio IC50: 1.7
Hepatocyte
  inhibition: Dose-dependent effect

## S=C(SSC(=S)n1c2ccccc2c2ccccc21)n1c2ccccc2c2ccccc21
[1]
  inhibition: 39.7%

## CCN(CC)C(=S)SCSC(=S)N(CC)CC
[1]
  inhibition: 12.4%

## O=C(O)C1CCN(C(=S)SSC(=S)N2CCC(C(=O)O)CC2)CC1
[1]
  inhibition: 47.6%

## Fructose-1,6-bisphosphatase 1 (Homo sapiens) (from UniProt P09467) UNDEFINED MUTATION
c1csc(SSc2nccs2)n1 [21]
  Vmax: 1.6 U/mg
c1csc(SSc2nccs2)n1 [22]
  Vmax: 2.5 U/mg
c1csc(SSc2nccs2)n1 [23]
  Vmax: 3.6 U/mg
c1csc(SSc2nccs2)n1 [24]
  Vmax: 3.5 U/mg
c1csc(SSc2nccs2)n1 [25]
  Vmax: 0.21 U/mg
c1csc(SSc2nccs2)n1 [26]
  Vmax: 1.9 U/mg
c1csc(SSc2nccs2)n1 [27]
  Vmax: 5 U/mg
c1csc(SSc2nccs2)n1 [28]
  Vmax: 1.6 U/mg
c1csc(SSc2nccs2)n1 [29]
  Vmax: 3.8 U/mg
c1csc(SSc2nccs2)n1 [30]
  Vmax: 2.7 U/mg
c1csc(SSc2nccs2)n1 [31]
  Vmax: 2.7 U/mg
c1csc(SSc2nccs2)n1 [32]
  Vmax: 5 U/mg
c1csc(SSc2nccs2)n1 [33]
  Vmax: 1.5 U/mg
c1csc(SSc2nccs2)n1 [34]
  Vmax: 2.3 U/mg

## CN1CCN(C(=S)SSC(=S)N2CCN(C)CC2)CC1
[1]
  inhibition: 26.2%
